These results are taken from patent US20060009805A1, “Neural stimulation device employing renewable chemical stimulation” (priority 2004, published 2006).

The conditions of data set [1]: cited from earlier work.
For data set [2], the system named is rabbit retinal ganglion cells. Nature of the data set: Single cell recordings from axons of retinal ganglion cells stimulated by focal ejection of K+ (KCl) from a micropipette. Format: cell-based. Here is the method: Single cell recordings were made from the axons of rabbit retinal ganglion cells in vitro. Data was recorded and analyzed using Spike2 (Cambridge Electronic Design). The ganglion cells were stimulated over the optical receptive field with a multibarrel micropipette (7-barrel, FHC, Inc.) which contained various concentrations of KCl (0-30 mM in an osmotically balanced NaCl solution (˜300 mOsm). The micropipette solutions were ejected by using a mulitchannel pressure ejector (PM8000, MDI Systems). All solutions contained Azure B (0.5 mg/ml) to enable visualization of the solution being ejected. Pulse durations of 20-100 msecs were used.
Response is shown for a cell stimulated with a 20 msec pulse of 10 mM K^+, pressure of 40 p.s.i. and a volume of approximately 100 pL. […] A modest increase (10 mM) in K^+ concentration increases the spike count from 35 to 80 spikes. Further increases in concentration to 15 mM and 30 mM increases the spike rate to 240 and 272 spikes, respectively. […] The histograms are summed responses from 10 trials as indicated by the raster plot.
Data was collected from 5 cells and the total spike count was obtained from the PSTH. The spontaneous activity (control record) was subtracted, divided by the number of repetitions and the median is plotted. The error bars shown are the standard deviations normalized by the median.
The large secondary lobe in the potassium response may be due to the fluid flow pattern that may have stimulated adjacent cells. Overall receptive field size is […] for a light evoked response.

Structures are written as SMILES.

Take `O=C(O)[C@H](O)[C@@H](O)[C@H](O)[C@H](O)CO` [Gluconic acid, gluconic acid]: the pKa in data set [1] is reported as approximately 3.6.
Regarding `[K+]` [K^+], in data set [2] (30 mM [K+]), the overall receptive field size, potassium evoked response was found to be 400 µm and the receptive field size, primary lobe, potassium evoked response is 100 µm. In addition, the “increase in background K+ concentration sufficient to excite the firing of an action potential by retinal ganglion cells” value in data set [2] (rabbit retina, in vitro) was approximately 10 mM. The “spike count (PSTH, summed responses from 10 trials)” value in data set [2] (representative cell, 10 mM K+, count without K+ increase 35) is listed as 80 spikes. Also, the “spike count (PSTH, summed responses from 10 trials; given as spike rate)” value in data set [2] (representative cell, 15 mM K+) turned out to be 240 spikes. Further, the “spike count (PSTH, summed responses from 10 trials; given as spike rate)” value in data set [2] (representative cell, 30 mM K+) amounted to 272 spikes.
